Results reported in patent publication US12037345B2, “Heterobicyclic compounds for inhibiting the activity of SHP2” (TAIHO PHARMACEUTICAL CO., LTD., priority 2018, dated 2024).
Structures can show the parent of a compound that is named as a salt.

The compounds below were run against SHP2 (Homo sapiens (Human), UniProt Q06124) (assay: SHP2 Biochemical Assay (DiFMUP conversion, pIRS1-activated)). Details: Table 19; head prints unit as "-M".
Chain of SHP2 (Q06124 whole entry): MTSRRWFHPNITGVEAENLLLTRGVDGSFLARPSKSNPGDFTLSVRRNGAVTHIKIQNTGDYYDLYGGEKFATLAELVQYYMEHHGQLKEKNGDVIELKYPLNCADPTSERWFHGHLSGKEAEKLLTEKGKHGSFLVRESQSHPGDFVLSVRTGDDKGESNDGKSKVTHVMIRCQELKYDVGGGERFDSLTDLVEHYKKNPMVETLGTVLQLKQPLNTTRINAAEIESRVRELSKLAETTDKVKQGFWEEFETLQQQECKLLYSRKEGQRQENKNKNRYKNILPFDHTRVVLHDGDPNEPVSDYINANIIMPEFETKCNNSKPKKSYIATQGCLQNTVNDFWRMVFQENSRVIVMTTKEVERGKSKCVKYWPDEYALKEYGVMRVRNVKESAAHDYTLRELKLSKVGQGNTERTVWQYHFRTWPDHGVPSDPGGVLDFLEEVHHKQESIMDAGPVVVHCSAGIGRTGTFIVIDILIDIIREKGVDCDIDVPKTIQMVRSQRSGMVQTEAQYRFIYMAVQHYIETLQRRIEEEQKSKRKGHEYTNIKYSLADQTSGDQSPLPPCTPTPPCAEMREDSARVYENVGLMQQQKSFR
Method: SHP2 activity was monitored by measuring the conversion of the surrogate substrate 6,8-difluoromethylumbelliferyl phosphate (DiFMUP) to the fluorescent product, 6,8-difluoromethylumbelliferone (DiFMU).
SHP2 was pre-incubated with test compounds and the activating peptide pIRS1 (H2N-LN(pY)IDLDLV-(PEG)8-LST(pY)ASINFQK-amide) for 30 min, prior to addition of the 6,8-difluoromethylumbelliferyl phosphate (DiFMUP), (Thermo Fisher D6567). Final assay concentrations were 10 pM SHP2, […] pIRS1 peptide, 50 μM DiFMUP, 25 mM Bis-Tris propane, pH 7.0, 150 mM NaCl, 0.05% (v/v) Tween-20, 0.5 mM TCEP and 5% (v/v) DMSO. Rates of reaction were then measured over 30 min by monitoring fluorescence on a BMG Pherastar reader at excitation 360 nm/emission 450 nm. IC50 values were calculated in singlicate from the normalized dose-response plots using four parameter logistic curve fit. The Experiment for each compound was carried out in one time or multiple times, and the IC50 values were shown as a single value (for a compound measured in a single experiment) or an average value (for a compound measured in multiple experiments).
For `CCn1cc2c(Cl)c(-c3c[nH]c4nc(N5C[C@H]6CC[C@@H]5[C@@H]6N)n(C)c(=O)c34)ccc2n1` (stereo in doubt) [Example 155, rel-2-((1R,4R,7R)-7-amino-2-azabicyclo[2.2.1]heptan-2-yl)-5-(4-chloro-2-ethyl-2H-indazol-5-yl)-3-methyl-3,7-dihydro-4H-pyrrolo[2,3-d]pyrimidin-4-one], the IC50 was 4 nM.
Work on `C[C@@H]1CN(c2nc3[nH]cc(-c4ccc5nn(C)cc5c4Cl)c3c(=O)n2C)CCN1` [Example 18, (R)-5-(4-chloro-2-methyl-2H-indazol-5-yl)-3-methyl-2-(3-methylpiperazin-1-yl)-3,7-dihydro-4H-pyrrolo[2,3-d]pyrimidin-4-one] yielded an IC50 of 230 nM.
`Cn1cc2c(Cl)c(-c3c[nH]c4nc(N5CCN[C@H](CO)C5)n(C)c(=O)c34)ccc2n1` [Example 19, (S)-5-(4-chloro-2-methyl-2H-indazol-5-yl)-2-(3-(hydroxymethyl)piperazin-1-yl)-3-methyl-3,7-dihydro-4H-pyrrolo[2,3-d]pyrimidin-4-one] was tested, and the IC50 was 350 nM.
Compound `Cn1cc2c(Cl)c(-c3c[nH]c4nc(N5CCN[C@H](CCO)C5)n(C)c(=O)c34)ccc2n1` [Example 20, (R)-5-(4-chloro-2-methyl-2H-indazol-5-yl)-2-(3-(2-hydroxyethyl)piperazin-1-yl)-3-methyl-3,7-dihydro-4H-pyrrolo[2,3-d]pyrimidin-4-one] has an IC50 of 760 nM.
`Cn1cc2c(Cl)c(-c3c[nH]c4nc(N5CCC6(CCN6)CC5)n(C)c(=O)c34)ccc2n1` [Example 42, 5-(4-chloro-2-methyl-2H-indazol-5-yl)-3-methyl-2-(1,7-diazaspiro[3.5]nonan-7-yl)-3,7-dihydro-4H-pyrrolo[2,3-d]pyrimidin-4-one] showed an IC50 of 78 nM.
`Cn1cc2c(Cl)c(-c3n[nH]c4nc(N5CC6COCC(C5)N6)n(C)c(=O)c34)ccc2n1` [Example 145, 3-(4-chloro-2-methyl-2H-indazol-5-yl)-5-methyl-6-{3-oxa-7,9-diazabicyclo[3.3.1]nonan-7-yl}-1H,4H,5H-pyrazolo[3,4-d]pyrimidin-4-one] showed an IC50 of 150 nM.
With `Cn1cc2c(Cl)c(-c3n[nH]c4nc(N5[C@@H]6CC[C@H]5[C@H](F)[C@@H](N)C6)n(C)c(=O)c34)ccc2n1` [Example 149, 6-[(1S,2R,3S,5R)-3-Amino-2-fluoro-8-azabicyclo[3.2.1]octan-8-yl]-3-(4-chloro-2-methyl-2H-indazol-5-yl)-5-methyl-1H,4H,5H-pyrazolo[3,4-d]pyrimidin-4-one] the IC50 was 290 nM.

Same assay, conditions: Table 20
With `CCn1cc2c(Cl)c(-c3c[nH]c4nc(N5CCC6(CNC6)C5)n(C)c(=O)c34)ccc2n1` (racemic) [Example 196, rac-5-(4-chloro-2-ethyl-2H-indazol-5-yl)-2-{2,6-diazaspiro[3.4]octan-6-yl}-3-methyl-3H,4H,7H-pyrrolo[2,3-d]pyrimidin-4-one] the IC50 was 32 nM.
For `CCn1cc2c(Cl)c(-c3c[nH]c4nc(N5CC6CNCC5C6)n(C)c(=O)c34)ccc2n1` (single isomer, unassigned) [Example 193, 5-(4-chloro-2-ethyl-2H-indazol-5-yl)-2-{3,6-diazabicyclo[3.2.1]octan-6-yl}-3-methyl-3H,4H,7H-pyrrolo[2,3-d]pyrimidin-4-one hydrochloride], the IC50 was 260 nM.
In the case of `Cn1nc2ccc(-c3c[nH]c4nc(N5[C@H]6CC[C@@H]5[C@@H](N)C6)n(C)c(=O)c34)c(Cl)c2c1Cl` [Example 166, 2-((1R,2S,4S)-2-amino-7-azabicyclo[2.2.1]heptan-7-yl)-5-(3,4-dichloro-2-methyl-2H-indazol-5-yl)-3-methyl-3,7-dihydro-4H-pyrrolo[2,3-d]pyrimidin-4-one], the IC50 is reported as 53 nM.
Compound `Cn1nc2ccc(-c3c[nH]c4nc(N5[C@H]6CC[C@@H]5[C@H](N)C6)n(C)c(=O)c34)cc2c1Cl` [Example 167, 2-((1R,2R,4S)-2-amino-7-azabicyclo[2.2.1]heptan-7-yl)-5-(3-chloro-2-methyl-2H-indazol-5-yl)-3-methyl-3,7-dihydro-4H-pyrrolo[2,3-d]pyrimidin-4-one] has an IC50 of 13 nM.
`Cn1nc2c(Cl)cc(-c3c[nH]c4nc(N5[C@H]6CC[C@@H]5[C@@H](N)C6)n(C)c(=O)c34)c(Cl)c2c1Cl` [Example 168, 2-((1R,2S,4S)-2-amino-7-azabicyclo[2.2.1]heptan-7-yl)-3-methyl-5-(3,4,7-trichloro-2-methyl-2H-indazol-5-yl)-3,7-dihydro-4H-pyrrolo[2,3-d]pyrimidin-4-one] gave an IC50 of 7 nM.
`CCn1cc2ccc(-c3c[nH]c4nc(N5CCC6(CC5)COC[C@H]6N)n(C)c(=O)c34)cc2n1` [Example 183, 2-[(4S)-4-amino-2-oxa-8-azaspiro[4.5]decan-8-yl]-5-(2-ethyl-2H-indazol-6-yl)-3-methyl-3H,4H,7H-pyrrolo[2,3-d]pyrimidin-4-one hydrochloride] was tested, and the IC50 was 140 nM.
`Cn1cc2c(Cl)c(-c3c[nH]c4nc(N5[C@@H]6CC[C@H]5C[C@](N)(C(F)F)C6)n(C)c(=O)c34)ccc2n1` [Example 185, 2-[(endo)-3-amino-3-(difluoromethyl)-8-azabicyclo[3.2.1]octan-8-yl]-5-(4-chloro-2-methyl-2H-indazol-5-yl)-3-methyl-3H,4H,7H-pyrrolo[2,3-d]pyrimidin-4-one hydrochloride] showed an IC50 of 180 nM.
With `CCn1cc2cc(-c3c[nH]c4nc(N5CCC6(CC5)COC[C@H]6N)n(C)c(=O)c34)cc(F)c2n1` [Example 186, 2-[(4S)-4-amino-2-oxa-8-azaspiro[4.5]decan-8-yl]-5-(2-ethyl-7-fluoro-2H-indazol-5-yl)-3-methyl-3H,4H,7H-pyrrolo[2,3-d]pyrimidin-4-one hydrochloride] the IC50 was 36 nM.

What follows are compounds tested on pERK (phospho-p44/42 ERK) in HCC827 cells (assay: Cellular pERK Inhibition Assay, Method A (In-Cell Western)). Details: Homo sapiens, Table 19, head prints unit as "-M", read-out: pERK (IC50) Method A.
Format: cell-based
Method: Cellular pERK Inhibition Assay
pERK levels were determined using the In-Cell Western assay. HCC827 cells (ATCC, Manassas, USA) were seeded into 384-well plates at a density of 1×10^4 cells/well in RPMI1640 medium supplemented with 10% FBS and incubated 24h. Compounds were diluted first in DMSO and then into serum-free medium, before being added to cells in quadruplicate to give a final concentration of 0.2% DMSO. Plates were incubated at 37° C. for the indicated time in a humidified atmosphere of 5% CO2 in air.
Following compound treatment, cells were fixed with formalin neutral buffer solution for 20 minutes at room temperature. Plates were washed three times with 0.1% Triton-X in PBS and cells were blocked for 1 hour with Odyssey blocking buffer (LI-COR, #927-40000). After shaking out blocking buffer, cells were incubated with phospho-p44/42 ERK antibody (Cell Signalling Technology, #4370, 1:200) diluted in Odyssey blocking buffer at 4° C. overnight. Plates were washed again and cells were incubated for 1 hour with Goat anti-Rabbit […] (LI-COR, #926-32211, 1:800) diluted in Odyssey blocking buffer. After washing and removing wash solution completely using a centrifuge machine, cells were scanned on the Odyssey (LI-COR), following the manufacturer's instructions. The average signal from blank wells (no cells added) was subtracted from the signals from each sample well. Levels of pERK were then expressed as percent of control, using DMSO treated samples as control. The relative IC50 values were calculated in quadruplicate from the normalized dose-response plots using four parameter logistic curve fit. The Experiment for each compound was carried out in one time or multiple times, and the IC50 values were shown as a single value (for a compound measured in a single experiment) or an average value (for a compound measured in multiple experiments).
`CCn1cc2c(Cl)c(-c3c[nH]c4nc(N5C[C@@H]6CC[C@H]5[C@H]6N)n(C)c(=O)c34)ccc2n1` (stereo in doubt) [Example 133, rac-2-((1S,4S,7S)-7-amino-2-azabicyclo[2.2.1]heptan-2-yl)-5-(4-chloro-2-ethyl-2H-indazol-5-yl)-3-methyl-3,7-dihydro-4H-pyrrolo[2,3-d]pyrimidin-4-one] was tested, and the IC50 was 46 nM.
`CCn1cc2c(Cl)c(-c3c[nH]c4nc(N5[C@H]6CC[C@@H]5[C@H](N)C6)n(C)c(=O)c34)ccc2n1` [Example 92, 2-((1R,2R,4S)-2-amino-7-azabicyclo[2.2.1]heptan-7-yl)-5-(4-chloro-2-ethyl-2H-indazol-5-yl)-3-methyl-3,7-dihydro-4H-pyrrolo[2,3-d]pyrimidin-4-one] was tested, and the IC50 was 32 nM.
`Cn1nc2ccc(-c3c[nH]c4nc(N5[C@H]6CC[C@@H]5[C@H](N)C6)n(C)c(=O)c34)c(Cl)c2c1Cl` [Example 93, 2-((1R,2R,4S)-2-amino-7-azabicyclo[2.2.1]heptan-7-yl)-5-(3,4-dichloro-2-methyl-2H-indazol-5-yl)-3-methyl-3,7-dihydro-4H-pyrrolo[2,3-d]pyrimidin-4-one] was tested, and the IC50 was 21 nM.
In the case of `Cn1nc2ccc(-c3c[nH]c4nc(N5[C@H]6CC[C@@H]5[C@H](N)C6)n(C)c(=O)c34)c(F)c2c1Cl` [Example 96, 2-((1R,2R,4S)-2-amino-7-azabicyclo[2.2.1]heptan-7-yl)-5-(3-chloro-4-fluoro-2-methyl-2H-indazol-5-yl)-3-methyl-3,7-dihydro-4H-pyrrolo[2,3-d]pyrimidin-4-one], the IC50 is reported as 30 nM.
`Cn1c(N2[C@H]3CC[C@@H]2[C@H](N)C3)nc2[nH]cc(-c3ccc4ncsc4c3Cl)c2c1=O` [Example 101, 2-((1R,2R,4S)-2-amino-7-azabicyclo[2.2.1]heptan-7-yl)-5-(7-chlorobenzo[d]thiazol-6-yl)-3-methyl-3,7-dihydro-4H-pyrrolo[2,3-d]pyrimidin-4-one] was tested, and the IC50 was 46 nM.
